Results: publication PMC7156724, “Potent BRD4 inhibitor suppresses cancer cell-macrophage interaction” (Nature Communications, 2020)
Several values for one entry are separate records, joined by “and”; a condition that tells them apart may be missing. Identical values can stand only once.

The molecules below were run on NCI-H211 small cell lung cancer (SCLC) cells (assay: AlamarBlue assay, NCI-H211). Settings: Fig.1e; concentration 0.0169701; replicates.
Assay type: cell-based
Description: (§1) 3. AlamarBlue assay. AlamarBlue was made by resazurin sodium salt (Sigma, Cat
(§2) # 199303) dissolved in PBS.
(§3) NCI-H211, MDA-MB231 and A375 cells were plated in 96-well plates at approximately 30% confluence and left overnight to adhere. In the following day, […]
(§4) of treatment, 10 μl AlamarBlue reagent (0.3 mg/ml) was added to each well, and after 18h, the florescence intensity in each well was measured using a top-reading fluorescent plate reader with excitation at 530 nm and emission at 590 nm. […]

SMILES	Cellular activity in SCLCs (H211), alamarBlue
Cc1nnn(C)c1-c1cnc2c3cc4c(cnn4C)cc3n([C@H](c3ccccc3)C3CCOCC3)c2c1 [NHWD-840]	11.62 and 22.01

Same assay, conditions: Fig.1e; concentration 0.0398488; replicates

SMILES	Cellular activity in SCLCs (H211), alamarBlue
Cc1nnn(C)c1-c1cnc2c3cc4c(cnn4C)cc3n([C@H](c3ccccc3)C3CCOCC3)c2c1 [NHWD-840]	7.96 and 8.04

Same assay, conditions: Fig.1e; concentration 0.137272; replicates

SMILES	Cellular activity in SCLCs (H211), alamarBlue
Cc1nnn(C)c1-c1cnc2c3cc4c(cnn4C)cc3n([C@H](c3ccccc3)C3CCOCC3)c2c1 [NHWD-840]	3.53 and 13.11

Same assay, conditions: Fig.1e; concentration 0.614394; replicates

SMILES	Cellular activity in SCLCs (H211), alamarBlue
Cc1nnn(C)c1-c1cnc2c3cc4c(cnn4C)cc3n([C@H](c3ccccc3)C3CCOCC3)c2c1 [NHWD-840]	11.24 and 2.1

Same assay, conditions: Fig.1e; concentration 1.09152; replicates

SMILES	Cellular activity in SCLCs (H211), alamarBlue
Cc1nnn(C)c1-c1cnc2c3cc4c(cnn4C)cc3n([C@H](c3ccccc3)C3CCOCC3)c2c1 [NHWD-840]	18.38 and 12.66

Same assay, conditions: Fig.1e; concentration 1.56864; replicates

SMILES	Cellular activity in SCLCs (H211), alamarBlue
Cc1nnn(C)c1-c1cnc2c3cc4c(cnn4C)cc3n([C@H](c3ccccc3)C3CCOCC3)c2c1 [NHWD-840]	47.24 and 47.49

Same assay, conditions: Fig.1e; concentration 2.04576; replicates

SMILES	Cellular activity in SCLCs (H211), alamarBlue
Cc1nnn(C)c1-c1cnc2c3cc4c(cnn4C)cc3n([C@H](c3ccccc3)C3CCOCC3)c2c1 [NHWD-840]	87.44 and 87.79

Same assay, conditions: Fig.1e; concentration 3; replicates

SMILES	Cellular activity in SCLCs (H211), alamarBlue
Cc1nnn(C)c1-c1cnc2c3cc4c(cnn4C)cc3n([C@H](c3ccccc3)C3CCOCC3)c2c1 [NHWD-840]	95.52 and 94.98

Same assay, conditions: Fig.1e; concentration column prints 2.52288; replicates

SMILES	Cellular activity in SCLCs (H211), alamarBlue
Cc1nnn(C)c1-c1cnc2c3cc4c(cnn4C)cc3n([C@H](c3ccccc3)C3CCOCC3)c2c1 [NHWD-840]	93.3 and 93.73

Same assay, conditions: Homo sapiens, NCI-H211, 72 h, 72 h treatment; nM; read-out: IC50, cellular activity in NCI-H211 (alamarBlue)

SMILES	IC50
Cc1nnn(C)c1-c1cnc2c3cc4c(cnn4C)cc3n([C@H](c3ccccc3)C3CCOCC3)c2c1 [NHWD-840]	38 ± 1.58 nM

What follows are molecules tested on MDA-MB231 triple negative breast cancer (TNBC) cells (assay: AlamarBlue assay, MDA-MB231). Settings: Fig.1f; concentration 0.15; replicates.
Assay type: cell-based, human
Description: as §1, §2, §3, §4

SMILES	Cellular activity in TNBCs (MDA-MB231), alamarBlue
Cc1nnn(C)c1-c1cnc2c3cc4c(cnn4C)cc3n([C@H](c3ccccc3)C3CCOCC3)c2c1 [NHWD-840]	9.03 and 8.43

Same assay, conditions: Fig.1f; concentration 0.6; replicates

SMILES	Cellular activity in TNBCs (MDA-MB231), alamarBlue
Cc1nnn(C)c1-c1cnc2c3cc4c(cnn4C)cc3n([C@H](c3ccccc3)C3CCOCC3)c2c1 [NHWD-840]	17.61 and 17.32

Same assay, conditions: Fig.1f; concentration 1; replicates

SMILES	Cellular activity in TNBCs (MDA-MB231), alamarBlue
Cc1nnn(C)c1-c1cnc2c3cc4c(cnn4C)cc3n([C@H](c3ccccc3)C3CCOCC3)c2c1 [NHWD-840]	35.92 and 25.61

Same assay, conditions: Fig.1f; concentration 1.5; replicates

SMILES	Cellular activity in TNBCs (MDA-MB231), alamarBlue
Cc1nnn(C)c1-c1cnc2c3cc4c(cnn4C)cc3n([C@H](c3ccccc3)C3CCOCC3)c2c1 [NHWD-840]	53.39 and 55.36

Same assay, conditions: Fig.1f; concentration 2; replicates

SMILES	Cellular activity in TNBCs (MDA-MB231), alamarBlue
Cc1nnn(C)c1-c1cnc2c3cc4c(cnn4C)cc3n([C@H](c3ccccc3)C3CCOCC3)c2c1 [NHWD-840]	70.13 and 73.2

Same assay, conditions: Fig.1f; concentration 2.5; replicates

SMILES	Cellular activity in TNBCs (MDA-MB231), alamarBlue
Cc1nnn(C)c1-c1cnc2c3cc4c(cnn4C)cc3n([C@H](c3ccccc3)C3CCOCC3)c2c1 [NHWD-840]	91.51 and 91.02

Same assay, conditions: Fig.1f; concentration 3; replicates

SMILES	Cellular activity in TNBCs (MDA-MB231), alamarBlue
Cc1nnn(C)c1-c1cnc2c3cc4c(cnn4C)cc3n([C@H](c3ccccc3)C3CCOCC3)c2c1 [NHWD-840]	94.65 and 95.19

Same assay, conditions: Fig.1f; concentration -0.3; replicates

SMILES	Cellular activity in TNBCs (MDA-MB231), alamarBlue
Cc1nnn(C)c1-c1cnc2c3cc4c(cnn4C)cc3n([C@H](c3ccccc3)C3CCOCC3)c2c1 [NHWD-840]	6.21 and 5.27

Same assay, conditions: Fig.1f; concentration -0.9; replicates

SMILES	Cellular activity in TNBCs (MDA-MB231), alamarBlue
Cc1nnn(C)c1-c1cnc2c3cc4c(cnn4C)cc3n([C@H](c3ccccc3)C3CCOCC3)c2c1 [NHWD-840]	2.77 and 4.58

Same assay, conditions: Homo sapiens, MDA-MB-231, 72 h, 72 h treatment; nM; read-out: IC50, cellular activity in MDA-MB231 (alamarBlue)

SMILES	IC50
Cc1nnn(C)c1-c1cnc2c3cc4c(cnn4C)cc3n([C@H](c3ccccc3)C3CCOCC3)c2c1 [NHWD-840]	31.6 ± 1.5 nM

Each molecule was assayed against T1, BRD4 (BD1+BD2) (Homo sapiens, UniProt O60885) (assay: BRD4 (BD1+BD2) TR-FRET binding assay). Settings: Fig.1d; concentration(nM) 0.0021442; replicates.
T1 construct: purchased BPS 32612
Text: 2. BRD4 binding assay. The inhibitory effects of NHWD-530, NHWD-540, NHWD- […]
(BPS, Cat # 32612) per manufacturer’s instructions. […]

SMILES	Biochemical activity against BRD4 (BD1 + BD2)
Cc1nnn(C)c1-c1cnc2c3cc4c(cnn4C)cc3n([C@H](c3ccccc3)C3CCOCC3)c2c1 [NHWD-840]	6.699 and 2.7152

Same assay, conditions: Fig.1d; concentration(nM) 0.061236; replicates

SMILES	Biochemical activity against BRD4 (BD1 + BD2)
Cc1nnn(C)c1-c1cnc2c3cc4c(cnn4C)cc3n([C@H](c3ccccc3)C3CCOCC3)c2c1 [NHWD-840]	2.407 and 5.845

Same assay, conditions: Fig.1d; concentration(nM) 0.103; replicates

SMILES	Biochemical activity against BRD4 (BD1 + BD2)
Cc1nnn(C)c1-c1cnc2c3cc4c(cnn4C)cc3n([C@H](c3ccccc3)C3CCOCC3)c2c1 [NHWD-840]	1.577 and 18.3661

Same assay, conditions: Fig.1d; concentration(nM) 0.59176; replicates

SMILES	Biochemical activity against BRD4 (BD1 + BD2)
Cc1nnn(C)c1-c1cnc2c3cc4c(cnn4C)cc3n([C@H](c3ccccc3)C3CCOCC3)c2c1 [NHWD-840]	2.146 and 9.5447

Same assay, conditions: Fig.1d; concentration(nM) 1.19382; replicates

SMILES	Biochemical activity against BRD4 (BD1 + BD2)
Cc1nnn(C)c1-c1cnc2c3cc4c(cnn4C)cc3n([C@H](c3ccccc3)C3CCOCC3)c2c1 [NHWD-840]	15.5205 and 30.3178

Same assay, conditions: Fig.1d; concentration(nM) 1.79588; replicates

SMILES	Biochemical activity against BRD4 (BD1 + BD2)
Cc1nnn(C)c1-c1cnc2c3cc4c(cnn4C)cc3n([C@H](c3ccccc3)C3CCOCC3)c2c1 [NHWD-840]	82.9618 and 83.2464

Same assay, conditions: Fig.1d; concentration(nM) 2.39794; replicates

SMILES	Biochemical activity against BRD4 (BD1 + BD2)
Cc1nnn(C)c1-c1cnc2c3cc4c(cnn4C)cc3n([C@H](c3ccccc3)C3CCOCC3)c2c1 [NHWD-840]	99.4664 and 98.6128

Same assay, conditions: Fig.1d; concentration(nM) 3; replicates

SMILES	Biochemical activity against BRD4 (BD1 + BD2)
Cc1nnn(C)c1-c1cnc2c3cc4c(cnn4C)cc3n([C@H](c3ccccc3)C3CCOCC3)c2c1 [NHWD-840]	101.174 and 100.889

Same assay, conditions: average IC50; nM; read-out: IC50, biochemical activity against BRD4 (BD1 + BD2)

SMILES	IC50
Cc1nnn(C)c1-c1cnc2c3cc4c(cnn4C)cc3n([C@H](c3ccccc3)C3CCOCC3)c2c1 [NHWD-840]	28.3 ± 1.45 nM
